We go through 2 compounds from patent EP0193944A1, “Derivatives of 5-fluorouracil” (Nippon Kayaku Kabushiki Kaisha, priority 1985, dated 1986).

Each structure is given as a SMILES string.

The subject of the series is murine leukemia P388. Description: Antitumor effect to murine leukemia P388 (survival of implanted mice, oral dosing). The format is in vivo. Particulars: for Survival Rate (T/C x 100): orally once daily for 5 consecutive days, female CDF1-SLC mice, P 388 cells implanted subcutaneously. How it is done:
Antitumor effect to murine leukemia P388. • Test compounds: 5-FU and compound No.1 (1-(4,4-dimethyl-6-oxo-l-cyclohexenyl)methylcarbamoyl-5-fluorouracil) • Method : 1 x 10^6 leukemia P 388 cells per mouse were implanted subcutaneously to female mice (CDFl-SLC strain, 18-21 g of weight). The control and test group consisted of 3 and 1 mice respectively. The compound No.l and 5-FU were dissolved in 100% dimethylsulfoxide respectively to be adjusted to various concentrations. The solution was administered orally to each mouse once daily for 5 consecutive days, starting 24 hours after the implantation.
Average period in days of survival in the group receiving the compound of this invention (T) and average period in days of survival in the control group (C) were determined to calculate survival rates (T/C x 100%).

Turning to `O=c1[nH]cc(F)c(=O)[nH]1` [5-FU, 5-Fluorouracil], the “Survival Rate (T/C x 100)” value (Dose 2.7 mg/kg/inj) was determined as 101%; the “Survival Rate (T/C x 100)” value (Dose 5.3 mg/kg/inj) worked out at 103%; the “Survival Rate (T/C x 100)” value (Dose 10.5 mg/kg/inj) amounted to 103%; the “Survival Rate (T/C x 100)” value (Dose 21 mg/kg/inj) is reported as 115%; the “Survival Rate (T/C x 100)” value (Dose 42 mg/kg/inj) turned out to be 64.7%; the “Survival Rate (T/C x 100)” value (Dose 84 mg/kg/inj) was found to be 52.5%.

On to `CC1(C)CC=C(CNC(=O)n2cc(F)c(=O)[nH]c2=O)C(=O)C1` [Compound No.1, 1-(4,4-dimethyl-6-oxo-l-cyclohexenyl)methylcarbamoyl-5-fluorouracil], for which the “Survival Rate (T/C x 100)” value by setting is: (Dose 25 mg/kg/inj) 115%; (Dose 50 mg/kg/inj) 129%; (Dose 100 mg/kg/inj) 151%; (Dose 200 mg/kg/inj) 122%; (Dose 400 mg/kg/inj) 71.9%. The “toxicity compared with 5-FU” value (conclusion from the dose range in the P388 mouse model, oral) is on record as “less toxic than 5-FU”.
